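In this assay, cells in 96-well plates receive the compound at five concentrations for 48 hours. Endpoints are linearly interpolated between the surrounding concentrations. At the GI50, growth is halved. TGI: total growth inhibition.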 Where only a bound is given, the exact number is not on record here.

Holding throughout (assay): growth of human tumour cells (NCI), 48 h
The test system of experiment [1] is ACHN renal.
For experiment [2], the system named is EKVX NSCLC.
Experiment [3] relates to HS 578T breast.
Experiment [4] concerns KM12 colon.
Experiment [5] has as its system LOX IMVI melanoma.
For experiment [6], the system named is MOLT-4 leukemia.
Experiment [7] has as its system OVCAR-4 ovarian.
The subject of experiment [8] is SNB-75 CNS.
The test system of experiment [9] is U251 CNS.
Experiment [10] concerns UACC-62 melanoma.

Regarding `COc1cc2c(/C=C3\C(=O)Nc4ccc(Br)cc43)c(Cl)n(C)c2cc1C`, the GI50 in experiment [1] is 2.26 µM; in [2] it was 3.76 µM; in [3] it was 0.517 µM; in [4] it was 0.387 µM; in experiment [5], 1.44 µM; in experiment [6], 5.63 µM. Further, the GI50 in [7] was 4.12 µM; in experiment [8], 1.82 µM; in experiment [9], 0.675 µM; in [10], 0.618 µM. Besides, the TGI in experiment [1] is 11.2 µM; in [2] it was 34.1 µM; in [3], 3.46 µM; in experiment [4], 1.88 µM; in [5], 6.7 µM; in experiment [6], greater than 27.5 µM. Moreover, the TGI in experiment [7] is 24.8 µM; in [8], greater than 25.7 µM; in [9] it was 6.69 µM; in experiment [10], 12.9 µM.
`Cc1ccc(Cl)cc1Nc1nc(C(F)(F)F)ccc1C(=O)Oc1ccc(Cl)cc1`: the GI50 is 5.16 µM in [1]; 7.26 µM in experiment [2]; 3.13 µM in experiment [3]; 21.6 µM in [4]; 5.21 µM in experiment [5]; 7.99 µM in experiment [6]. The GI50 in experiment [7] is 11.1 µM; in experiment [8] it was 6.57 µM; in experiment [9], 4.15 µM; in experiment [10], 15.8 µM. Also, the TGI in [1] was determined as 18 µM; in experiment [2] it was 22.8 µM; in [3], 14.8 µM; in [4], 63.6 µM; in experiment [5] it was 21.9 µM; in experiment [6], 24.3 µM. Further, the TGI in experiment [7] came out at 44.3 µM; in experiment [8], 23.3 µM; in experiment [9], 16.1 µM; in [10] it was 38.6 µM.
On to `O=C(O)/C(Cl)=C(/Cl)C(=O)Nc1cccc(Cl)c1`, for which the TGI in [1] worked out at 36.8 µM; in experiment [2], 33.6 µM; in [3] it was 71.6 µM; in experiment [4], 47.7 µM; in experiment [5], 20.8 µM; in experiment [6] it was 8.45 µM. The TGI was found to be 33.6 µM in experiment [7], 40.1 µM in experiment [8], 59.9 µM in [9] and 31.7 µM in experiment [10].
For `COc1ccccc1Nc1nc(-c2cc3cccc(C(F)(F)F)c3oc2=O)cs1`, the GI50 in experiment [1] is 0.106 µM; in experiment [2] it was 0.164 µM; in [3], 0.277 µM; in experiment [4] it was 0.0723 µM; in experiment [5], 0.14 µM; in experiment [6], 0.5 µM. Besides, the GI50 was 0.185 µM in experiment [7], 0.0305 µM in experiment [8], 0.11 µM in [9] and 0.154 µM in [10]. Further, the TGI in experiment [1] was greater than 100 µM; in experiment [2], greater than 100 µM; in experiment [3], greater than 81.2 µM; in experiment [4], 22.3 µM; in experiment [5] it was greater than 82.2 µM; in experiment [6], greater than 100 µM. In addition, the TGI in [7] was greater than 63.3 µM; in [8], 16.7 µM; in experiment [9] it was 29.3 µM; in experiment [10], greater than 81.6 µM.
Take `COC(=O)c1ccc2c(c1)nc(-c1ccc(Cl)cc1)n2-c1cc(C(C)(C)C)[nH]n1`: the GI50 in experiment [1] was 3 µM; in [2] it was 3.06 µM; in experiment [3], 1.72 µM; in [4] it was 2.12 µM; in experiment [5] it was 3.7 µM; in experiment [6], 5.48 µM. Moreover, the GI50 was 3.4 µM in experiment [7], 2.14 µM in [8], 4.13 µM in [9] and 2.01 µM in [10]. For the same compound, the TGI is 9.34 µM in [1]; greater than 100 µM in experiment [2]; 7.16 µM in [3]; 6.07 µM in [4]; 14.5 µM in [5]; greater than 100 µM in experiment [6]. Besides, the TGI is greater than 100 µM in experiment [7], 12.6 µM in experiment [8], 22.7 µM in [9] and 7.78 µM in [10].
As to `CC(O)CN(CCN(CC(C)O)CC(C)O)CC(C)O.O=[N+]([O-])O.[Cu+2]` (stereo not given), the GI50 in [1] is greater than 100 µM; in experiment [2], 67.3 µM; in experiment [3], greater than 100 µM; in experiment [4] it was greater than 100 µM; in experiment [5] it was greater than 100 µM; in [6] it was greater than 100 µM. In addition, the GI50 in experiment [7] is 73.6 µM; in experiment [8], greater than 100 µM; in experiment [9] it was greater than 100 µM; in experiment [10] it was greater than 100 µM. Also, the TGI in experiment [1], in experiment [2], in [3], in experiment [4], in [5] and in [6] was greater than 100 µM each time. Besides, the TGI in experiment [7], in [8], in experiment [9] and in [10] was greater than 100 µM in each case.
